In ChEMBL document CHEMBL5029156 (J Med Chem, 2021):

Assays:
[1] = target: T1, Aldehyde oxidase (Homo sapiens, UniProt Q06278); assay: Mixed type inhibition of human AOX assessed as inhibitor dissociation constant by measuring changes in slope of the double reciprocal plot using phenanthridine as substrate by Michaelis-Menten analysis; settings: read-out: Kis
T1 sequence (Q06278 whole entry): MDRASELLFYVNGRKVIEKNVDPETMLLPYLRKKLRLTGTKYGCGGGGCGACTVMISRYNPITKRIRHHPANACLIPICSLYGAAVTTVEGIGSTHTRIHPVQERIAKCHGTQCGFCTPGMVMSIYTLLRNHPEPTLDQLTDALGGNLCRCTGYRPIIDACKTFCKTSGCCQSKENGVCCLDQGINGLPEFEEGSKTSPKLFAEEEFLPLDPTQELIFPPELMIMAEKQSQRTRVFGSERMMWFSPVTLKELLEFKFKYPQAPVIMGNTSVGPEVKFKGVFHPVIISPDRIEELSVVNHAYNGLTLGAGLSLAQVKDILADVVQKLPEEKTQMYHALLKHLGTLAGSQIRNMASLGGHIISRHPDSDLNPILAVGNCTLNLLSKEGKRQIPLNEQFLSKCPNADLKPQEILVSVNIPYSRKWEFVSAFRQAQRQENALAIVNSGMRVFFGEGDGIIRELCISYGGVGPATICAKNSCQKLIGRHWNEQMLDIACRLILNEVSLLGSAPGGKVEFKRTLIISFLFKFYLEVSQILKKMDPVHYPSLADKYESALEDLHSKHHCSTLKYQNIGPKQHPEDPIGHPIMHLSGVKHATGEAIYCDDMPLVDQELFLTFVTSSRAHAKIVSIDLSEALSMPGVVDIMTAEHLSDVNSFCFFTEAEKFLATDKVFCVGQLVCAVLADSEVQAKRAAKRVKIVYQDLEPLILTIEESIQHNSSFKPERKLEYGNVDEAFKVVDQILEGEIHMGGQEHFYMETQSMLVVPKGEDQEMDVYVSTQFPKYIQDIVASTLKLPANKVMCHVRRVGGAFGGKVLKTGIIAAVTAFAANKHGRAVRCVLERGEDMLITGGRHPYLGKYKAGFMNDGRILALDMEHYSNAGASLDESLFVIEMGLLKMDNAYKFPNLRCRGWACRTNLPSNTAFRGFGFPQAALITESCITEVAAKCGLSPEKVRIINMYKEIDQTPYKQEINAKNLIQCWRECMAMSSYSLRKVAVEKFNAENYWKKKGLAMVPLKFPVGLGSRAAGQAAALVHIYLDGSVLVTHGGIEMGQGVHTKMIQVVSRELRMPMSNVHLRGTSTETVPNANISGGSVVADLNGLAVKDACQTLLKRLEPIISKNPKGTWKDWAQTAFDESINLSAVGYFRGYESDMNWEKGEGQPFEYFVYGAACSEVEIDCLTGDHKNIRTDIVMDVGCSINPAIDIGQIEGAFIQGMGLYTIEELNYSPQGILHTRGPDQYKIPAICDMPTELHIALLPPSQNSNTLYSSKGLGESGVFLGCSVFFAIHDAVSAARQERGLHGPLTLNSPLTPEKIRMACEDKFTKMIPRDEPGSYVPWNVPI

[2] = target: T1, Aldehyde oxidase; assay: Mixed type inhibition of human AOX assessed as inhibitor dissociation constant by measuring changes in intercept of the double reciprocal plot using phenanthridine as substrate by Michaelis-Menten analysis; settings: read-out: Kii
[3] = target: T1, Aldehyde oxidase; assay: Noncompetitive type inhibition of human AOX assessed as inhibitor dissociation constant by measuring changes in intercept of the double reciprocal plot using phthalazine as substrate by Michaelis-Menten analysis; settings: read-out: Kii
[4] = target: T1, Aldehyde oxidase; assay: Noncompetitive type inhibition of human AOX assessed as inhibitor dissociation constant by measuring slope of the double reciprocal plot using phthalazine as substrate by Michaelis-Menten analysis; settings: read-out: Kis

Ki [1]	Ki [2]	Ki [3]	Ki [4]	Compound
1240 µM	1620 µM			N=C(N)c1ccccc1 [BENZAMIDINE]
		1.3 µM	1.3 µM	CSc1ccc2c(c1)N(CCC1CCCCN1C)c1ccccc1S2 (centres undefined) [THIORIDAZINE]
